Where “and” joins values, the source holds several entries; their conditions need not be identical. Equal values may be shown once.
Experiments:
AbCGT = AbCGT (Aloe vera, UniProt A0A7G9P699); assay: Glycosyltransferase activity assay, purified AbCGT (wild type) with aglycon acceptors and UDP-Glc; type: biochemical, Aloe barbadensis; settings: fig. 2b, purified AbCGT, redesigned substrates; Reaction-1 to -3
Protocol: Due to the instability of some acceptors in the buffer of pH 11.0, the reactions were performed under the physiological conditions (pH 7.4, 30 °C) to compare the catalytic activities of AbGT27 with different substrates under the same conditions. The reactions were performed at 30 °C for up to 12 h and terminated by the addition of 200 μL of ice-cold methanol. Subsequently, samples were centrifuged at 15,000 × g for 30 min to collect the supernatant, and aliquots were analyzed by HPLC-UV/ESIMS. […] The gradient programs were used for the analysis of the reactions (Supplementary Table 6). The conversion rates of the enzyme reactions were calculated from peak areas of glycosylated products and substrates as analyzed by HPLC. To facilitate inferential statistical analysis, three parallel assays were routinely performed; the means ± SD from triplicate analyses are reported here.

E. coli-AbCGT = assay: Glycosylation by whole-cell biocatalyst E. coli-AbCGT; type: cell-based; settings: fig. 2c, 30 °C, M9 medium, 12 h, 0.25 mM acceptor; Reaction-1 to -3
Protocol: The induced cells of E. coli-AbCGT were harvested by centrifugation at 3000 × g for 5 min at 4 °C and washed with ddH2O. Pellets were resuspended by M9 minimal medium containing 2% glucose to appropriate cell density (OD600 = 3.0). Prepared whole-cell biocatalyst of E. coli-AbCGT (500 μL) was then added to 2-mL tubes containing various acceptors at a concentration of 0.25 mM. The mixture was incubated at 30 °C for 12 h with shaking (200 rpm). The reactions were analyzed using GT activity assays as described above. For quantification, three parallel assays were routinely carried out.

SGLT2 = biological target: T1, SGLT2 (Homo sapiens, UniProt P31639); assay: 1-NBDG uptake in HEK293 cells stably expressing SGLT2; type: cell-based; settings: HEK293, compound at 10 μM; triplicate; read-out: SGLT2 inhibitory rates
T1 construct: Human full-length SGLT2 cDNA (NM_003041.3) was synthesized; expressed in transfected cells; host or cells: HEK293, retroviral transduction with pMSCVpuro-SGLT2, puromycin selected
T1 sequence (P31639 1-672): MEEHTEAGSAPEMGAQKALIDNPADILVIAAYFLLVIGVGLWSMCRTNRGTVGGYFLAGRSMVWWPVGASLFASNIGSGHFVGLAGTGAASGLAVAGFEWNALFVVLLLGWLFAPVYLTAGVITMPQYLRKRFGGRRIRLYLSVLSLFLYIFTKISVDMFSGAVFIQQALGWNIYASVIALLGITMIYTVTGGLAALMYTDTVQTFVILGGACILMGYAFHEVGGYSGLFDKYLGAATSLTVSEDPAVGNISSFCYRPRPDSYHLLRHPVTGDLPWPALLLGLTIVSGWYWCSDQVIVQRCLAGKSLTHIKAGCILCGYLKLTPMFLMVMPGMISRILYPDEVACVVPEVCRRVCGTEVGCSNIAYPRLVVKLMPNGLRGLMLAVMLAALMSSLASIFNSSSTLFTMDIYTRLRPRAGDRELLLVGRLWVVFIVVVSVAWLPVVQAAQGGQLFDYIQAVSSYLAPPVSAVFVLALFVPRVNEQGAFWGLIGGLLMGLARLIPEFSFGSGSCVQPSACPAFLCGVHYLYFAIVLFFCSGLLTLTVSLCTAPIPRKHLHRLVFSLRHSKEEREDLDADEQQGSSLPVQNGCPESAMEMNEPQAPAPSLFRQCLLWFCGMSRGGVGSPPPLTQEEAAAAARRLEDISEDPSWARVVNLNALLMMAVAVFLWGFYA

Sequence of AbCGT (A0A7G9P699 entry or part of it): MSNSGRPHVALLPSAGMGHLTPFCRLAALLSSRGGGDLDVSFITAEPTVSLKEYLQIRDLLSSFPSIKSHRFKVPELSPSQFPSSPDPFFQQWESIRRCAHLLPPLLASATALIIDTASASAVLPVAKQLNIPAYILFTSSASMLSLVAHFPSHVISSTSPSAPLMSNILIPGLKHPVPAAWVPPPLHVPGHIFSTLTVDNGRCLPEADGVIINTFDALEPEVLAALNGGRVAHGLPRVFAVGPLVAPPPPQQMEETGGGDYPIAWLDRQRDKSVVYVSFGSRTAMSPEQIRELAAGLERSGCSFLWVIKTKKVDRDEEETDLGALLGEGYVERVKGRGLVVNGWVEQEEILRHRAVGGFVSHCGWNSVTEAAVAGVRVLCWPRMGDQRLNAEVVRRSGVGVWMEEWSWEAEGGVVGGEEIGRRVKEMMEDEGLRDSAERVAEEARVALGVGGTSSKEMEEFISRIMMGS

inhibition at 10 µM (SGLT2) [%]	SMILES	conversion rates, Purified Enzyme (AbCGT)	conversion rates, Whole cells (E. coli-AbCGT)
–	Oc1ccc(Cc2ccccc2)c(O)c1 [Compound 28]	55.6% and 72.2% and 58.2%	0.5% and 0.7% and 0.3%
–	Oc1ccc(/N=N/c2nccs2)c(O)c1 [Compound 29]	35.9% and 40% and 39.9%	3.7% and 5.4% and 5.9%
76.4	OCC1OC(c2c(O)cc(O)c(Cc3ccccc3)c2O)C(O)C(O)C1O (stereo not shown) [Compound 38a]	–	–
23.6	OCC1OC(c2c(O)cc(O)c(CCc3ccccc3)c2O)C(O)C(O)C1O (stereo not shown) [Compound 39a]	–	–
68.5	OCC1OC(c2c(O)cc(O)c(Cc3ccsc3)c2O)C(O)C(O)C1O (stereo not shown) [Compound 42a]	–	–
20.4	OCC1OC(c2c(O)cc(O)c(CCc3c[nH]c4ccccc34)c2O)C(O)C(O)C1O (stereo not shown) [Compound 43a]	–	–
85.4	OCC1OC(c2c(O)cc(O)c(Cc3ccc(F)cc3)c2O)C(O)C(O)C1O (stereo not shown) [Compound 48a]	–	–
18.6	OCC1OC(c2c(O)cc(O)c(CCc3ccc(O)cc3)c2O)C(O)C(O)C1O (stereo not shown) [Compound 51a]	–	–
36.7	OCC1OC(c2c(O)cc(O)c(CCc3ccc4c(c3)CCO4)c2O)C(O)C(O)C1O (stereo not shown) [Compound 52a]	–	–
24.3	OCC1OC(c2c(O)cc(O)c(CCc3ccc(F)cc3)c2O)C(O)C(O)C1O (stereo not shown) [Compound 53a]	–	–
62.5	OCC1OC(c2c(O)cc(O)c(CCc3ccc(Cl)cc3)c2O)C(O)C(O)C1O (stereo not shown) [Compound 54a]	–	–
